{"source": "patent US12071602B2", "about": "“Inductively coupled capacitor wireless sensor system for rapid antimicrobial susceptibility testing” (SYRACUSE UNIVERSITY, priority 2021, dated 2024)", "system": "E. coli MG1655", "assay": "LC sensor relative permittivity growth monitoring (AST), ampicillin sensitive strain", "type": "cell-based", "conditions": "100 μg/mL ampicillin at the time of inoculation, cultured for 4 hours; observed within 30 mins; FIG. 12"}
{"smiles": "CC1(C)S[C@@H]2[C@H](NC(=O)[C@H](N)c3ccccc3)C(=O)N2[C@H]1C(=O)O", "note": "[ampicillin]", "values": [{"measurement": "growth in presence of ampicillin (relative permittivity)", "value": "inhibited"}]}
